Where “and” joins values, the source holds several entries; their conditions need not be identical. Identical values can stand only once.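 Grown in 96-well plates, cells were treated for 48 hours with each compound at five concentrations. Insufficient inhibition: endpoint recorded as highest concentration tested. GI50 marks 50% less growth. TGI marks complete inhibition of growth.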
How the values were obtained:
Experiment in all cases: NCI tumour cell line growth inhibition, 48 h
HT29 colon = system: HT29 colon
NCI-H522 lung = system: NCI-H522 lung
NCI-H460 lung = system: NCI-H460 lung
UACC-257 melanoma = system: UACC-257 melanoma
MALME-3M melanoma = system: MALME-3M melanoma
OVCAR-4 ovarian = system: OVCAR-4 ovarian
SF-539 CNS = system: SF-539 CNS
LOX IMVI melanoma = system: LOX IMVI melanoma
MCF7 breast = system: MCF7 breast
SK-MEL-2 melanoma = system: SK-MEL-2 melanoma

Row | SMILES | TGI (HT29 colon) | TGI (NCI-H522 lung) | TGI (NCI-H460 lung) [µM] | TGI (UACC-257 melanoma) [µM] | TGI (MALME-3M melanoma) [µM] | TGI (OVCAR-4 ovarian) [µM] | TGI (SF-539 CNS) [µM] | TGI (LOX IMVI melanoma) [µM] | TGI (MCF7 breast) | TGI (SK-MEL-2 melanoma) | GI50 (HT29 colon) | GI50 (NCI-H522 lung) | GI50 (NCI-H460 lung) [µM] | GI50 (UACC-257 melanoma) [µM] | GI50 (MALME-3M melanoma) [µM] | GI50 (OVCAR-4 ovarian) [µM] | GI50 (SF-539 CNS) [µM] | GI50 (LOX IMVI melanoma) | GI50 (MCF7 breast) | GI50 (SK-MEL-2 melanoma)
1 | O=C1CCC2=C(CCC2)N1CCc1ccc2c(c1)OCO2 | > 100 µM | > 100 µM | > 100 | > 100 | > 100 | > 100 | > 100 | > 100 | > 100 µM | > 100 µM | – | – | – | – | – | – | – | – | – | –
2 | N=C(N)n1[nH]c2c(c1=O)CCC2 | > 100 µM | > 100 µM | > 100 | > 100 | > 100 | > 100 | > 100 | > 100 | > 100 µM | > 100 µM | – | – | – | – | – | – | – | – | – | –
3 | CCOC(=O)/C=C(/C(=O)OCC)n1c(=O)c(C)cn(C2CC(N=[N+]=[N-])C(CO)O2)c1=O (stereo unspecified) | > 100 µM | > 100 µM | > 100 | 86.1 | > 100 | > 100 | 47.9 | > 100 | 50.2 µM | 72 µM | – | – | – | – | – | – | – | – | – | –
4 | Cc1ccnc(NC(=S)Nc2ccccc2Cl)c1 | > 100 µM | > 100 µM | > 100 | > 100 | > 100 | > 100 | > 100 | > 100 | > 100 µM | > 100 µM | – | – | – | – | – | – | – | – | – | –
5 | O=C1c2ccccc2C(=O)N1C(=S)c1ccccc1 | > 100 µM | > 100 µM | > 100 | > 100 | > 100 | > 100 | > 100 | > 100 | > 100 µM | > 100 µM | – | – | – | – | – | – | – | – | – | –
6 | O=[N+]([O-])c1cccc2nc3ccccc3c(NCCC[N+]3([O-])CCCCC3)c12 | 6.37 µM | 0.345 µM | 1.18 | 0.55 | 0.352 | 1.15 | 2.16 | 2.4 | 1.99 µM | 0.354 µM | – | – | – | – | – | – | – | – | – | –
7 | O=C([C@H](O)[C@@H](O)c1ccc(Br)cc1)C12CC3CC(CC(C3)C1)C2 | > 61.9 µM | > 57.7 µM | 16.1 | > 43.3 | 51.4 | > 100 | > 28.7 | > 100 | > 39.7 µM | > 31.6 µM | – | – | – | – | – | – | – | – | – | –
8 | O=C(Nc1ccc2ccccc2c1)Nn1cnnc1 | > 100 µM | > 100 µM | > 100 | > 100 | > 100 | > 100 | > 100 | > 100 | > 100 µM | > 100 µM | – | – | – | – | – | – | – | – | – | –
9 | Cc1cc2nc3n(c2cc1C)C(c1c(F)cccc1F)SC3 (stereo unspecified) | 38.9 µM | 44.1 µM | 38.5 | > 100 | 65.1 | 62.2 | 38.2 | 30.3 | 34.2 µM | 39.7 µM | – | – | – | – | – | – | – | – | – | –
10 | CN(N)C(=O)NCCCl | > 100 µM | > 100 µM | > 100 | > 100 | > 100 | > 100 | > 100 | > 100 | > 100 µM | > 100 µM | – | – | – | – | – | – | – | – | – | –
11 | COc1ccc(N2CCN(c3ccc4c(c3)NCC(=O)N4)CC2)cc1 | > 100 µM | 30.8 µM | > 100 | > 100 | > 100 | 77.3 | 54.1 | > 100 | > 100 µM | 69.6 µM | – | – | – | – | – | – | – | – | – | –
12 | Oc1c(I)cc(I)cc1CNCCCN(Cc1ccccn1)Cc1ccccn1 | 10.2 µM | 4.48 µM | 2.78 | 3.39 | 1.73 | 2.31 | 1.61 | 1.77 | 3.59 µM | 2.91 µM | 1.74 µM | 1.34 µM | 1.2 | 1.21 | 0.873 | 1.02 | 0.863 | 0.926 µM | 1.2 µM | 1.18 µM
13 | O=C(NN=C1CCCCC1)Nc1ccccc1Cl | > 100 µM | > 100 µM | > 100 | > 100 | > 100 | > 100 | > 100 | > 100 | > 100 µM | 91.7 µM | – | – | – | – | – | – | – | – | – | –
14 | N#CC1N(C(=O)c2ccc(F)cc2)c2ccccc2N1C(=O)c1ccc(F)cc1 | > 100 µM | > 100 µM | > 100 | > 100 | > 100 | > 100 | > 100 | > 100 | > 100 µM | > 100 µM | – | – | – | – | – | – | – | – | – | –
15 | CC(C)OC(=O)c1ccc(CCC2=CC(=O)C(Br)=CC2=O)cc1 | 31.8 µM | 19.3 µM | 46.6 | 26.9 | 29.1 | 23.1 | 35.5 | 30.8 | 35.2 µM | 41.7 µM | – | – | – | – | – | – | – | – | – | –
16 | COC(=O)C1(NC(=O)C(N)CC(=O)O)C(C)C1C (stereo unspecified) | > 100 µM | > 100 µM | > 100 | > 100 | > 100 | > 100 | > 100 | > 100 | > 100 µM | > 100 µM | – | – | – | – | – | – | – | – | – | –
17 | COC(=O)C1=C(OC(=O)/C(=C/c2ccc(Cl)cc2)c2ccccc2)C(C(=O)OC)[C@@]2(O)[C@@H](C(=O)OC)[C@H](C)C[C@@H]1[C@@H]2C(=O)OC (stereo partly specified) | > 100 µM | > 100 µM | > 100 | > 100 | > 100 | > 100 | > 100 | > 100 | > 100 µM | > 100 µM | – | – | – | – | – | – | – | – | – | –
18 | CC[C@@]1(O)C(=O)OCc2c1cc1n(c2=O)Cc2c-1nc1ccccc1c2/C=N\NC(=O)C(N)CS (stereo partly specified) | > 100 µM | 25.9 µM | > 43.6 | > 100 | > 100 | > 100 | 0.806 | 13.4 | > 100 µM | > 100 µM | – | – | – | – | – | – | – | – | – | –
19 | Oc1[nH]c2ccccc2c1N=NC(=S)N1CCCCCC1 | 10.8 µM | 12.6 µM | 5.28 | 5.88 | 3.02 | 3.91 | 1.59 | 2.41 | 10.9 µM | 5.72 µM | – | – | – | – | – | – | – | – | – | –
20 | Clc1ccc(OCC2NC3C=CC32)cn1 (stereo unspecified) | > 100 µM | > 100 µM | > 100 | > 100 | > 100 | > 100 | > 100 | > 100 | > 100 µM | > 100 µM | – | – | – | – | – | – | – | – | – | –
21 | COc1cc2c3c(cc(Cl)nc3c1OC)C(O)(CC(C)=O)C(=O)N2 (stereo unspecified) | > 61.9 µM | 26 µM | > 89.6 | 21.5 | 29.8 | 32.4 | > 100 | 34.8 | 35.9 µM | 45.7 µM | – | – | – | – | – | – | – | – | – | –
22 | CC(=O)O[C@H]1CC[C@@]2(C)C(=CC[C@@H]3[C@@H]2CC[C@]2(C)c4nc(N)c(C#N)cc4C[C@@H]32)C1 | > 62.2 µM | > 100 µM | > 100 | > 100 | > 100 | > 86.9 | 64 | > 100 | > 100 µM | > 100 µM | – | – | – | – | – | – | – | – | – | –
23 | C/C=C/C=C/C1=NN(c2cccc(S(=O)(=O)O)c2)C2(C1)SCC(=O)N2c1nc2ccccc2s1 (stereo unspecified) | > 100 µM | > 100 µM | > 100 | > 100 | > 100 | > 100 | > 100 | 51.8 | > 100 µM | > 100 µM | – | – | – | – | – | – | – | – | – | –
24 | C=C1c2nc3ccccc3n2C=C(c2ccc(Cl)cc2)N1c1ccccc1 | – | 18.5 µM | 24.9 | 63 | 27 | 29.9 | 25.9 | > 100 | 25.7 µM | > 100 µM | – | – | – | – | – | – | – | – | – | –
25 | COc1ccc2[nH]c(C(=O)N3CC(CCl)c4ccc([N+](=O)[O-])cc43)cc2c1 (stereo unspecified) | > 100 µM | > 100 µM | > 100 | > 100 | > 100 | > 100 | > 100 | > 100 | > 100 µM | > 100 µM | – | – | – | – | – | – | – | – | – | –
26 | c1ccc([C@H]2CN3CCSC3=N2)cc1 | > 100 µM | > 100 µM | > 100 | > 100 | > 100 | > 100 | > 100 | > 100 | > 100 µM | > 100 µM | – | – | – | – | – | – | – | – | – | –
27 | N#CSCC1COc2ccccc2O1 (stereo unspecified) | > 10 µM | 7.05 µM | > 10 | – | > 10 | > 10 | > 10 | > 10 | > 10 µM | > 10 µM | – | – | – | – | – | – | – | – | – | –
28 | Cc1cc(=O)c2c(O)c3c(O)cc(O)c4c5c(O)cc(O)c6c(O)c7c(=O)cc(C)c8c1c2c(c34)c(c65)c78 | > 100 µM and 43.2 µM | > 100 µM and 44.2 µM | > 100 | > 100 | > 100 | > 100 | > 100 | > 100 | > 100 µM and 36.3 µM | > 100 µM and 94 µM | > 100 µM and 19.2 µM | > 100 µM and 19.4 µM | 33.2 | > 100 | – | – | > 100 | > 100 µM and 35.4 µM | > 100 µM and 16.6 µM | > 100 µM and 37.3 µM
